Measurements: patent US20230365602A1, “COMPOUND FOR USE IN THE TREATMENT OF PROTOZOAL DISEASES AND PROCESS FOR PRODUCTION OF SAID COMPOUND” (QUADREL S.R.L., priority 2020, published 2023)
Where two headings read alike, the source gives them in different places.

Columns and labels:
hERG channel = hERG channel (Homo sapiens, UniProt Q12809); assay: in vitro
[1] = in humans; cited from earlier work
[2] = Human microsomal stability; type: in vitro ADME
Procedure: (§1) Furthermore, compound 19 is stable in human hepatic microsomes (samples were taken at 0, 5, 15, 30, 45 minutes) (Table 8), while the human plasma stability is 99.7% (samples were taken at 0, 15, 30, 45, 60, 120 minutes).

[3] = Biodistribution in tissues 72 h after oral gavage; type: in vivo, mice; conditions: for Kp at 72 h / concentration at 72 h: BALB/c (Compound 19), NMRI (miltefosine), mouse; for Kp at 72 h: 72 h after 20 mg/kg oral gavage
Procedure: Blood samples were collected from the tail vein at 0, 0.5, 0.75, 1, 3, 24 and 72 hours into heparinized tubes. Moreover, biodistribution of the molecule, 72h after administration, was determined in several organs of the treated mice, namely brain, liver, spleen, kidney, heart and bone marrow. […] J Chromatogr B, 865: 55-62) by liquid chromatography mass spectrometry (LC-MS/MS).

[4] = test system: Salmonella TA100 (base pair substitutions); assay: Ames mutagenicity testing, TA100; type: cell-based
Procedure: The test has been performed in duplicate as separate experiments (Table 9). Two different Salmonella strains were tested; TA98 (frameshift mutations) and TA100 (base pair substitutions, primarily at one of the GC pairs). Values above 15 represent genotoxicity.

Human plasma stability = type: in vitro ADME; conditions: samples at 0, 15, 30, 45, 60, 120 minutes
Procedure: as §1

Chain of hERG channel (Q12809 whole entry): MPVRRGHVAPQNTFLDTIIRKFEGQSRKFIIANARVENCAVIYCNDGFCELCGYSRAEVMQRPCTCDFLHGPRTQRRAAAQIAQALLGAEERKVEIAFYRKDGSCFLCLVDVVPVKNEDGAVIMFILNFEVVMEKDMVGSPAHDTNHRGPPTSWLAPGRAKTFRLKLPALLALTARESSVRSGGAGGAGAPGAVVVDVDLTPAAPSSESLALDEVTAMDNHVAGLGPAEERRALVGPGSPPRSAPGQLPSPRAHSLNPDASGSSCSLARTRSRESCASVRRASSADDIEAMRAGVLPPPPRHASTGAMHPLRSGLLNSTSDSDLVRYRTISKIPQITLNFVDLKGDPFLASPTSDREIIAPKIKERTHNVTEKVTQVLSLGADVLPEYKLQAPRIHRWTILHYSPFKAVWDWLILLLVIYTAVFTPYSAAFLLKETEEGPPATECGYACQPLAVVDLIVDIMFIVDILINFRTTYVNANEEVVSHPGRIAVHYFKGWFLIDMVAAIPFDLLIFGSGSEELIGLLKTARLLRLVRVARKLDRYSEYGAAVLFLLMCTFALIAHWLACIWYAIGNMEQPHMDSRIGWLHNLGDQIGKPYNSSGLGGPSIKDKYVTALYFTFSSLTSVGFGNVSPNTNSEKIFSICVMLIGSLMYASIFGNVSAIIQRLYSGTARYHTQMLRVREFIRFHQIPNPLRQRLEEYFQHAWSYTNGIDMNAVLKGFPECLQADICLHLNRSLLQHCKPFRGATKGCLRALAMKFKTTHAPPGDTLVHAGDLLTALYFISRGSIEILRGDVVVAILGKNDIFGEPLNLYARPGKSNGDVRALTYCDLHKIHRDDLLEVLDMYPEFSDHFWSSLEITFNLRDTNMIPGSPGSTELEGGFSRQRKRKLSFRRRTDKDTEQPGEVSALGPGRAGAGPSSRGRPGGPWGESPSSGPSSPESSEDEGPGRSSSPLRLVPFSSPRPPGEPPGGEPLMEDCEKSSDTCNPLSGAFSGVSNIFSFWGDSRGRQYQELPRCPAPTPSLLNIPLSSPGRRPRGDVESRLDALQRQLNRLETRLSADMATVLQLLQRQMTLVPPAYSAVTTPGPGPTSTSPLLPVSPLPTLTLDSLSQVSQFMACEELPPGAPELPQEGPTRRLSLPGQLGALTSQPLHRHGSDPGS

## CCCCCCCCCCCCCCCCOP(=O)([O-])OCC[N+](C)(C)C [Miltefosine, hexadecylphosphocholine, reference compound]
hERG channel
  inhibition at 10 µM: -16.9 ± 7.34%
[1]
  half-life: 100 to 200 h

## C[N+](C)(C)CCOP(=O)([O-])OCCCCCC1CCCCCCCCCCCCCC1 [Compound 19, 5-cyclopentadecylpentyl (2-(trimethylammonio)ethyl) phosphate]
[2]; human microsomes
  Degradation non NADPH dependent (%): 0%
[2]; samples at 0, 5, 15, 30, 45 minutes
  Human microsomal Metabolic stability (%): 100%
[3]; 72 hours after 20 mg/kg oral gavage
  times less concentration in plasma than miltefosine: 6.5 times
[3]; bone marrow, read-out: Tissue/Plasma ratio Bone marrow
  Kp at 72 h: 0.09
[3]; bone marrow, 72 hours after 20 mg/kg oral gavage, read-out: Bone marrow
  concentration at 72 h: 200 ng/g
[3]; brain, read-out: Tissue/Plasma ratio Brain
  Kp at 72 h: 0.248
[3]; brain, 72 hours after 20 mg/kg oral gavage, read-out: Brain
  concentration at 72 h: 540 ± 610 ng/g
[3]; heart, read-out: Tissue/Plasma ratio Heart
  Kp at 72 h: 0.55
[3]; heart, 72 hours after 20 mg/kg oral gavage, read-out: Heart
  concentration at 72 h: 1200 ± 900 ng/g
[3]; kidney, read-out: Tissue/Plasma ratio Kidney
  Kp at 72 h: 18.9
[3]; kidney, 72 hours after 20 mg/kg oral gavage, read-out: Kidney
  concentration at 72 h: 41100 ± 15800 ng/g
[3]; liver, read-out: Tissue/Plasma ratio Liver
  Kp at 72 h: 5.36
[3]; liver, 72 hours after 20 mg/kg oral gavage, read-out: Liver
  concentration at 72 h: 11600 ± 880 ng/g
[3]; plasma, 72 hours after 20 mg/kg oral gavage, read-out: Plasma
  concentration at 72 h: 2170 ± 550 ng/mL
[3]; spleen, read-out: Tissue/Plasma ratio Spleen
  Kp at 72 h: 1.06
[3]; spleen, 72 hours after 20 mg/kg oral gavage, read-out: Spleen
  concentration at 72 h: 2310 ± 710 ng/g
[4]; 3.125 μM
  Ames mutagenicity TA100 (values above 15 represent genotoxicity): 7.5 ± 0.71
[4]; 6.25 μM
  Ames mutagenicity TA100 (values above 15 represent genotoxicity): 9.0 ± 0
[4]; 12.5 μM
  Ames mutagenicity TA100 (values above 15 represent genotoxicity): 14.0 ± 1.41
[4]; 25 μM
  Ames mutagenicity TA100 (values above 15 represent genotoxicity): 7.0 ± 2.83
[4]; 50 μM
  Ames mutagenicity TA100 (values above 15 represent genotoxicity): 10.0 ± 0
[4]; 100 μM
  Ames mutagenicity TA100 (values above 15 represent genotoxicity): 8.5 ± 4.95
[4]; up to 100 μM
  mutagenicity, TA100: does not exhibit mutagenicity
Human plasma stability
  Human plasma Metabolic stability (%): 99.7%
